Measured values taken from ChEMBL document CHEMBL1154382, “Preliminary SAR analysis of novel antiproliferative N(6),5'-bis-ureidoadenosine derivatives” (2009).

Experiments:
Format in all cases: functional
U-251 = test: Antiproliferative activity against human U251 cells at 10 uM assessed as cell growth inhibition relative to control; settings: values are per cent of control
SK-MEL-5 = test: Antiproliferative activity against human SK-MEL-5 cells
NCI-H226 = test: Antiproliferative activity against human NCI-H226 cells at 10 uM assessed as cell growth inhibition relative to control; settings: values are per cent of control
RXF 393 [1] = test: Antiproliferative activity against human RXF393 cells
MDA-MB-231 = test: Antiproliferative activity against human MDA-MB-231 cells
CCRF-CEM [2] = test: Antiproliferative activity against human CCRF-CEM cells
UO-31 = test: Antiproliferative activity against human UO31 cells
SNB-75 = test: Antiproliferative activity against human SNB75 cells
[3] = Antiproliferative activity against human […] cells
HCT-116 = test: Antiproliferative activity against human HCT116 cells at 10 uM assessed as cell growth inhibition relative to control; settings: values are per cent of control
OVCAR-3 [4] = test: Antiproliferative activity against human OVCAR-3 cells
MCF7 [5] = test: Antiproliferative activity against human MCF7 cells
CCRF-CEM [6] = test: Antiproliferative activity against human CCRF-CEM cells at 10 uM assessed as cell growth inhibition relative to control; settings: values are per cent of control
SF-539 = test: Antiproliferative activity against human SF539 cells at 10 uM assessed as cell growth inhibition relative to control; settings: values are per cent of control
ACHN [7] = test: Antiproliferative activity against human ACHN cells at 10 uM assessed as cell growth inhibition relative to control; settings: values are per cent of control
RXF 393 [8] = test: Antiproliferative activity against human RXF393 cells at 10 uM assessed as cell growth inhibition relative to control; settings: values are per cent of control
SK-MEL-2 = test: Antiproliferative activity against human SK-MEL-2 cells at 10 uM assessed as cell growth inhibition relative to control; settings: values are per cent of control
HL-60(TB) [9] = test: Antiproliferative activity against human HL-60(TB) cells at 10 uM assessed as cell growth inhibition relative to control; settings: values are per cent of control
SK-OV-3 [10] = test: Antiproliferative activity against human SKOV3 cells
DU-145 = test: Antiproliferative activity against human DU145 cells
NCI-H23 = test: Antiproliferative activity against human NCI-H23 cells
SK-MEL-28 [11] = test: Antiproliferative activity against human SK-MEL-28 cells
SNB-19 = test: Antiproliferative activity against human SNB19 cells at 10 uM assessed as cell growth inhibition relative to control; settings: values are per cent of control
SK-OV-3 [12] = test: Antiproliferative activity against human SKOV3 cells at 10 uM assessed as cell growth inhibition relative to control; settings: values are per cent of control
COLO 205 [13] = test: Antiproliferative activity against human COLO205 cells at 10 uM assessed as cell growth inhibition relative to control; settings: values are per cent of control
ACHN [14] = test: Antiproliferative activity against human ACHN cells
HCT-15 = test: Antiproliferative activity against human HCT15 cells
SN12C = test: Antiproliferative activity against human SN12C cells
IGROV-1 = test: Antiproliferative activity against human IGROV1 cells
[15] = Antiproliferative activity against human Hs 578T cells at 10 uM assessed as cell growth inhibition relative to control; settings: values are per cent of control
SF-295 [16] = test: Antiproliferative activity against human SF295 cells
PC-3 [17] = test: Antiproliferative activity against human PC3 cells at 10 uM assessed as cell growth inhibition relative to control; settings: values are per cent of control
786-0 = test: Antiproliferative activity against human 786-0 cells at 10 uM assessed as cell growth inhibition relative to control; settings: values are per cent of control
UACC-62 [18] = test: Antiproliferative activity against human UACC62 cells
T47D = test: Antiproliferative activity against human T47D cells at 10 uM assessed as cell growth inhibition relative to control; settings: values are per cent of control
MCF7 [19] = test: Antiproliferative activity against human MCF7 cells at 10 uM assessed as cell growth inhibition relative to control; settings: values are per cent of control
EKVX = test: Antiproliferative activity against human EKVX cells at 10 uM assessed as cell growth inhibition relative to control; settings: values are per cent of control
HL-60(TB) [20] = test: Antiproliferative activity against human HL-60(TB) cells
UACC-62 [21] = test: Antiproliferative activity against human UACC62 cells at 10 uM assessed as cell growth inhibition relative to control; settings: values are per cent of control
SF-268 = test: Antiproliferative activity against human SF268 cells at 10 uM assessed as cell growth inhibition relative to control; settings: values are per cent of control
HOP-92 [22] = test: Antiproliferative activity against human HOP92 cells at 10 uM assessed as cell growth inhibition relative to control; settings: values are per cent of control
SF-295 [23] = test: Antiproliferative activity against human SF295 cells at 10 uM assessed as cell growth inhibition relative to control; settings: values are per cent of control
NCI-H322M = test: Antiproliferative activity against human NCI-H322M cells
M14 [24] = test: Antiproliferative activity against human M14 cells
NCI-H460 [25] = test: Antiproliferative activity against human NCI-H460 cells at 10 uM assessed as cell growth inhibition relative to control; settings: values are per cent of control
TK-10 = test: Antiproliferative activity against human TK10 cells
BT-549 = test: Antiproliferative activity against human BT549 cells
UACC-257 = test: Antiproliferative activity against human UACC257 cells
M14 [26] = test: Antiproliferative activity against human M14 cells at 10 uM assessed as cell growth inhibition relative to control; settings: values are per cent of control
KM12 = test: Antiproliferative activity against human KM12 cells at 10 uM assessed as cell growth inhibition relative to control; settings: values are per cent of control
NCI-H460 [27] = test: Antiproliferative activity against human NCI-H460 cells
COLO 205 [28] = test: Antiproliferative activity against human COLO205 cells
MDA-MB-435 = test: Antiproliferative activity against human MDA-MB-435 cells
SK-MEL-28 [29] = test: Antiproliferative activity against human SK-MEL-28 cells at 10 uM assessed as cell growth inhibition relative to control; settings: values are per cent of control
HOP-92 [30] = test: Antiproliferative activity against human HOP92 cells
PC-3 [31] = test: Antiproliferative activity against human PC3 cells
LOX IMVI = test: Antiproliferative activity against human LOXIMVI cells
NCI-H522 = test: Antiproliferative activity against human NCI-H522 cells
A549 = test: Antiproliferative activity against human A549 cells at 10 uM assessed as cell growth inhibition relative to control; settings: values are per cent of control
OVCAR-3 [32] = test: Antiproliferative activity against human OVCAR-3 cells at 10 uM assessed as cell growth inhibition relative to control; settings: values are per cent of control
OVCAR-5 = test: Antiproliferative activity against human OVCAR5 cells
CAKI-1 = test: Antiproliferative activity against human Caki1 cells
HT-29 = test: Antiproliferative activity against human HT-29 cells

CCOC(=O)C[C@H]1[C@@H](O[Si](C)(C)C(C)(C)C)[C@H](n2cnc3c(NC(=O)Nc4ccccc4)ncnc32)O[C@@H]1COC(=O)NC
growth, % of control at 10 µM (U-251): 52% | GI50 (SK-MEL-5): 5.7 µM | growth, % of control at 10 µM (NCI-H226): 56% | GI50 (RXF 393 [1]): 2.94 µM | GI50 (MDA-MB-231): 17.5 µM | GI50 (CCRF-CEM [2]): 3.23 µM | GI50 (UO-31): 5.7 µM | GI50 (SNB-75): 10.3 µM | GI50 [3]: 2.16 µM | growth, % of control at 10 µM (HCT-116): 17% | GI50 (OVCAR-3 [4]): 2.42 µM | GI50 (MCF7 [5]): 3.37 µM | growth, % of control at 10 µM (CCRF-CEM [6]): 57% | growth, % of control at 10 µM (SF-539): 33% | growth, % of control at 10 µM (ACHN [7]): 26% | growth, % of control at 10 µM (RXF 393 [8]): 35% | growth, % of control at 10 µM (SK-MEL-2): 60% | growth, % of control at 10 µM (HL-60(TB) [9]): 23% | GI50 (SK-OV-3 [10]): 40.4 µM | GI50 (DU-145): 5.21 µM | GI50 (NCI-H23): 12.9 µM | GI50 (SK-MEL-28 [11]): 7.77 µM | growth, % of control at 10 µM (SNB-19): 99% | growth, % of control at 10 µM (SK-OV-3 [12]): 95% | growth, % of control at 10 µM (COLO 205 [13]): 67% | GI50 (ACHN [14]): 5.92 µM | GI50 (HCT-15): 11.7 µM | GI50 (SN12C): 2.17 µM | GI50 (IGROV-1): 13.7 µM | growth, % of control at 10 µM [15]: 57% | GI50 (SF-295 [16]): 2.83 µM | growth, % of control at 10 µM (PC-3 [17]): 32% | growth, % of control at 10 µM (786-0): 73% | GI50 (UACC-62 [18]): 15.8 µM | growth, % of control at 10 µM (T47D): 29% | growth, % of control at 10 µM (MCF7 [19]): 12% | growth, % of control at 10 µM (EKVX): 68% | GI50 (HL-60(TB) [20]): 0.00139 µM | growth, % of control at 10 µM (UACC-62 [21]): 65% | growth, % of control at 10 µM (SF-268): 60% | growth, % of control at 10 µM (HOP-92 [22]): 62% | growth, % of control at 10 µM (SF-295 [23]): 66% | GI50 (NCI-H322M): 31.7 µM | GI50 (M14 [24]): 6.37 µM | growth, % of control at 10 µM (NCI-H460 [25]): 13% | GI50 (TK-10): 10.7 µM | GI50 (BT-549): 2.07 µM | GI50 (UACC-257): 20.8 µM | growth, % of control at 10 µM (M14 [26]): 57% | growth, % of control at 10 µM (KM12): 31% | GI50 (NCI-H460 [27]): 4.45 µM | GI50 (COLO 205 [28]): 7.7 µM | GI50 (MDA-MB-435): 3.26 µM | growth, % of control at 10 µM (SK-MEL-28 [29]): 72% | GI50 (HOP-92 [30]): 6.52 µM | GI50 (PC-3 [31]): 2.87 µM | GI50 (LOX IMVI): 7.78 µM | GI50 (NCI-H522): 9.58 µM | growth, % of control at 10 µM (A549): 51% | growth, % of control at 10 µM (OVCAR-3 [32]): 51% | GI50 (OVCAR-5): 12.8 µM | GI50 (CAKI-1): 3.72 µM | GI50 (HT-29): 3.97 µM
